Data published in the supplement of paper PMC6965134.

Test: TIMS collisional cross section (CCS, N2) of the lipid ion; higher = larger ion cross section
Details: ionization mode: positive, one isomer drawn

Compound | TIMS collisional cross section (sample type: HeLa) [Å²] | other results
CC/C=C\C/C=C\C/C=C\C/C=C\C/C=C\C/C=C\CCC(=O)O[C@H](COC(=O)CCCC/C=C\C/C=C\C/C=C\CCCCC)COP(=O)([O-])OCC[N+](C)(C)C [PC 18:3_22:6@] (ion (formula + adduct): [C48H78NO8P+H] 1+) |  | TIMS collisional cross section (sample type: Liver): 289.6 Å²
CCCCC/C=C\C/C=C\C/C=C\CCCCCCC(=O)O[C@H](COC(=O)CCCCCCCCCCCCCCCCCC)COP(=O)([O-])OCC[N+](C)(C)C [PC 19:0@_20:3] (ion (formula + adduct): [C47H88NO8P+H] 1+) |  | TIMS collisional cross section (sample type: Liver): 299.8 Å²
CCCCC/C=C\C/C=C\C/C=C\C/C=C\CCCC(=O)O[C@H](COC(=O)CCCCCCCCCCCCCCCCCC)COP(=O)([O-])OCC[N+](C)(C)C [PC 19:0@_20:4] (ion (formula + adduct): [C47H86NO8P+H] 1+) |  | TIMS collisional cross section (sample type: Liver): 298 Å²
CC/C=C\C/C=C\C/C=C\C/C=C\C/C=C\C/C=C\CCC(=O)O[C@H](COC(=O)CCCCCCCCCCCCCCCCCC)COP(=O)([O-])OCC[N+](C)(C)C [PC 19:0@_22:6] (ion (formula + adduct): [C49H86NO8P+H] 1+) |  | TIMS collisional cross section (sample type: Liver): 300.5 Å²
CCCCC/C=C\C/C=C\CCCCCCCC(=O)O[C@H](COC(=O)CCCCCCCCCCCCCCCCCCC)COP(=O)([O-])OCC[N+](C)(C)C [PC 20:0_18:2] (ion (formula + adduct): [C46H88NO8P+H] 1+) |  | TIMS collisional cross section (sample type: Liver): 297.5 Å²
CCCCC/C=C\C/C=C\C/C=C\CCCCCCC(=O)O[C@H](COC(=O)CCCCCCCCC/C=C\CCCCCCCC)COP(=O)([O-])OCC[N+](C)(C)C [PC 20:1@_20:3] (ion (formula + adduct): [C48H88NO8P+H] 1+) |  | TIMS collisional cross section (sample type: plasma): 301.7 Å²
CCCCC/C=C/C/C=C/C/C=C/C/C=C/CCCC(=O)OC[C@H](COP(=O)([O-])OCC[N+](C)(C)C)OC(=O)CCC/C=C/C/C=C/C/C=C/C/C=C/CCCCC [PC 20:4_20:4] (ion (formula + adduct): [C48H80NO8P+H] 1+) | 292.7 | 
CC/C=C\C/C=C\C/C=C\C/C=C\C/C=C\CCCC(=O)O[C@H](COC(=O)CCC/C=C\C/C=C\C/C=C\C/C=C\CCCCC)COP(=O)([O-])OCC[N+](C)(C)C [PC 20:4_20:5] (ion (formula + adduct): [C48H78NO8P+H] 1+) | 290.3 | 
CC/C=C\C/C=C\C/C=C\C/C=C\C/C=C\C/C=C\CCC(=O)O[C@H](COC(=O)CCC/C=C\C/C=C\C/C=C\C/C=C\CCCCC)COP(=O)([O-])OCC[N+](C)(C)C [PC 20:4_22:6] (ion (formula + adduct): [C50H80NO8P+H] 1+) | 295.5 | 
CC/C=C\C/C=C\C/C=C\C/C=C\C/C=C\C/C=C\CCC(=O)OC[C@H](COP(=O)([O-])OCC[N+](C)(C)C)OC(=O)CC/C=C\C/C=C\C/C=C\C/C=C\C/C=C\C/C=C\CC [PC 22:6_22:6] (ion (formula + adduct): [C52H80NO8P+H] 1+) | 298.6 | 
CCCCCCCCCCCCCCCCOC[C@H](COP(=O)([O-])OCC[N+](C)(C)C)OC(=O)CCCCCCCCCCCCC [PC O- 16:0@_14:0] (ion (formula + adduct): [C38H78NO7P+H] 1+) | 280.8 | 
CCCCCCC/C=C\CCCCCCCC(=O)O[C@H](COCCCCCCCCCCCCCCCC)COP(=O)([O-])OCC[N+](C)(C)C [PC O- 16:0@_17:1] (ion (formula + adduct): [C41H82NO7P+H] 1+) | 287.7 | 
CCCCCCCC/C=C\CCCCCCCC(=O)O[C@H](COCCCCCCCCCCCCCCCC)COP(=O)([O-])OCC[N+](C)(C)C [PC O- 16:0@_18:1] (ion (formula + adduct): [C42H84NO7P+H] 1+) | 290.7 | 
CCCCC/C=C\C/C=C\CCCCCCCC(=O)O[C@H](COCCCCCCCCCCCCCCCC)COP(=O)([O-])OCC[N+](C)(C)C [PC O- 16:0@_18:2] (ion (formula + adduct): [C42H82NO7P+H] 1+) |  | TIMS collisional cross section (sample type: plasma): 287.3 Å²
CCCCC/C=C/C/C=C/C/C=C/C/C=C/CCCC(=O)O[C@H](COCCCCCCCCCCCCCCCC)COP(=O)([O-])OCC[N+](C)(C)C [PC O- 16:0@_20:4] (ion (formula + adduct): [C44H82NO7P+H] 1+) | 290.4 | 
CC/C=C\C/C=C\C/C=C\C/C=C\C/C=C\CCCC(=O)O[C@H](COCCCCCCCCCCCCCCCC)COP(=O)([O-])OCC[N+](C)(C)C [PC O- 16:0@_20:5] (ion (formula + adduct): [C44H80NO7P+H] 1+) | 287.7 | 
CCCCC/C=C\C/C=C\C/C=C\C/C=C\CCCCCC(=O)O[C@H](COCCCCCCCCCCCCCCCC)COP(=O)([O-])OCC[N+](C)(C)C [PC O- 16:0@_22:4] (ion (formula + adduct): [C46H86NO7P+H] 1+) |  | TIMS collisional cross section (sample type: plasma): 296.3 Å²
CC/C=C\C/C=C\C/C=C\C/C=C\C/C=C\CCCCCC(=O)O[C@H](COCCCCCCCCCCCCCCCC)COP(=O)([O-])OCC[N+](C)(C)C [PC O- 16:0@_22:5] (ion (formula + adduct): [C46H84NO7P+H] 1+) | 294.4 | 
CC/C=C\C/C=C\C/C=C\C/C=C\CCCCCCC(=O)O[C@H](COCCCCCCCC/C=C\CCCCCC)COP(=O)([O-])OCC[N+](C)(C)C [PC O- 16:1@_20:4] (ion (formula + adduct): [C44H80NO7P+H] 1+) |  | TIMS collisional cross section (sample type: plasma): 287.2 Å²
CCCCCCCCCCCCCCCCCCOC[C@H](COP(=O)([O-])OCC[N+](C)(C)C)OC(=O)CCCCCCCCCCCCCCC [PC O- 18:0@_16:0] (ion (formula + adduct): [C42H86NO7P+H] 1+) | 293.3 | 
CCCCC/C=C\C/C=C\CCCCCCCC(=O)O[C@H](COCCCCCCCCCCCCCCCCCC)COP(=O)([O-])OCC[N+](C)(C)C [PC O- 18:0@_18:2] (ion (formula + adduct): [C44H86NO7P+H] 1+) |  | TIMS collisional cross section (sample type: plasma): 294.7 Å²
CCCCC/C=C\C/C=C\C/C=C\C/C=C\CCCCCC(=O)O[C@H](COCCCCCCCCCCCCCCCCCC)COP(=O)([O-])OCC[N+](C)(C)C [PC O- 18:0@_22:4] (ion (formula + adduct): [C48H90NO7P+H] 1+) | 301.9 | 
CCCCC/C=C\C/C=C\C/C=C\C/C=C\C/C=C\CCC(=O)O[C@H](COCCCCCCCCCCCCCCCCCC)COP(=O)([O-])OCC[N+](C)(C)C [PC O- 18:0@_22:5] (ion (formula + adduct): [C48H88NO7P+H] 1+) | 300.2 | 
CCCCC/C=C\C/C=C\C/C=C\C/C=C\CCCC(=O)O[C@H](COCCCCCCCC/C=C\CCCCCCCC)COP(=O)([O-])OCC[N+](C)(C)C [PC O- 18:1@_20:4] (ion (formula + adduct): [C46H84NO7P+H] 1+) |  | TIMS collisional cross section (sample type: plasma): 294 Å²
CC/C=C\C/C=C\C/C=C\C/C=C\C/C=C\C/C=C\CCC(=O)O[C@H](COCCCCCCCCCCCCCCCCCCCC)COP(=O)([O-])OCC[N+](C)(C)C [PC O- 20:0@_22:6] (ion (formula + adduct): [C50H90NO7P+H] 1+) | 305.7 | TIMS collisional cross section (sample type: plasma): 304.9 Å²
